Test results: PMC5510229, “BCAT1 controls metabolic reprogramming in activated human macrophages and is associated with inflammatory diseases” (Nature Communications, 2017)

System: human monocyte-derived macrophages (hMDMs)
Experiment: hMDM cell viability (alamarBlue)
Type: cell-based
Settings: ERG240 20 mM
Protocol: Migration of BMDMs an d viability of hMDMs
The migration of BMDMs was assessed using a modified Bo yden chamber methodology.
Specificall y, mouse BMDMs were tr ypsinized and suspended in serum free incomplete medi a containing various concentrations of the drug at a cell density of 2.5x10^4 cells/mL. Volumes of 400 µL of cell suspens ions were added onto the upper chamber of 6.5 m m transwell inserts (Costar, Cat. No. 3422), placed in a 24-well plate (Costar). A volume of 1.5 mL of complete media containing 10% FBS as chemo- attractant were added into the lower chambers of the plate. The assa y also included wells with lower chambers containing serum free incomplete media as negative control. […]
To determine the effect of ERG240 on the total number of BMDMs, cell s were plated onto a 96-well plate at a density of 5,000 cells per well in complete media and allowed to adhere overnight. The cells were then exposed to various drug concentrations overnight and the cell population was quantified with CyQuant Cell Proliferation kit (Life Technologies) using triplicates, in two independent experiments. For hMDMs, cell viability was determined using the alamarBlue® Assa y (Invitrogen). […]
backed up by quantitative proteomics by LC -MS/MS (with maximum of the 12 most abundant multiply -charged ions registered in each survey spectrum selected in a data - […]

CC(=O)C(C)CCC(=O)O (centres unmarked) [ERG240]
cell viability at 3 and 8 h (control and LPS-treated hMDMs): did not affect cell viability | cell viability at 24 h (only in LPS-stimulated cells): modest but significant reduction in cell viability
